The values below come from ChEMBL document CHEMBL1201862, “PubChem BioAssay data set” (2004).

Holding throughout (assay): inhibition of tumour cell growth, NCI panel, 48 h
Assay [1] has as its system U-251.
In assay [2] the test system is HCT-15.
The subject of assay [3] is SF-295.
In assay [4] the test system is NCI-H522.
In assay [5] the test system is CAKI-1.
The subject of assay [6] is SNB-75.
Assay [7] concerns HCT-116.
Assay [8] has as its system NCI-H460.
For assay [9], the system named is K562.
Assay [10] relates to EKVX.
For assay [11], the system named is CCRF-CEM.
For assay [12], the system named is SR.
The test system of assay [13] is OVCAR-4.
Assay [14] has as its system 786-0.
Assay [15] relates to OVCAR-5.
Assay [16] has as its system HOP-62.
For assay [17], the system named is IGROV-1.
The test system of assay [18] is HT-29.
For assay [19], the system named is MDA-MB-435.

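Cells were grown in 96-well plates and exposed to each compound for 48 hours at five concentrations; endpoints were interpolated linearly between bracketing concentrations, or set to the highest concentration if not reached. GI50 is the concentration that inhibits growth by half.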 Calls of active or inactive are those of the source. Cut-off read from the data, not from the text of the source: active = GI50 up to about 1.1 µM and inactive = higher. *1 amine or outer side, *2 acyl side, *3 side chain or, on linkers, in order; H or OH if unused. Where a SMILES comes first, the peptide text is derived from it. Bridges are numbered along the chain shown (N, C = ends). [ ]: non-standard residue; d: D form. X36 = CC[C@H](C)[C@@H](N[*:1])[C@@H](O)CC(=O)O[C@H](C(=O)[C@H](C)C(=O)[*:2])C(C)C; NMeY = CN[C@@H](Cc1ccc(O)cc1)C(=O)O

In the case of `O=C1c2ccccc2C(=O)N1/N=C\c1ccc(Br)cc1`, the GI50 in assay [1] is > 100 µM (inactive); in assay [2], more than 10 µM; in [3] it was > 10 µM (inactive); in assay [4], > 100 µM (inactive); in assay [5], > 10 µM (inactive); in assay [6], > 10 µM (inactive). Further, the GI50 in assay [7], in assay [8], in assay [9], in assay [10], in assay [11] and in [12] was > 10 µM (inactive) throughout. Further, the GI50 in assay [13], in assay [14], in assay [15], in [16], in assay [17] and in assay [18] was > 10 µM (inactive) throughout.

In the case of `C=C(CC(NC(=O)c1ccc(C(CC)Cc2cnc3nc(N)nc(N)c3n2)cc1)C(=O)O)C(=O)O` (configuration not stated), the GI50 is 0.152 µM (active) in assay [1]; 0.00531 µM in assay [2]; 0.00113 µM (active) in [3]; 0.169 µM (active) in assay [5]; 0.154 µM (active) in assay [6]; 0.00286 µM (active) in assay [7]. For the same compound, the GI50 was 0.00589 µM (active) in assay [8]; 0.00185 µM (active) in [9]; 52.7 µM (inactive) in [10]; 0.01 µM (active) in assay [11]; 0.00316 µM (active) in [12]; 0.246 µM (active) in assay [13]. The GI50 is 0.00174 µM (active) in [14]; 0.653 µM (active) in [15]; 0.0369 µM (active) in assay [19]; 0.03 µM (active) in [16]; 0.0274 µM (active) in assay [17]; 0.0356 µM (active) in [18].

On to `O=C(NCC(O)CNC(=O)C(F)(F)F)C(F)(F)F`, for which the GI50 is > 100 µM (inactive) in assay [1]; more than 100 µM in assay [2]; > 100 µM (inactive) in [3]; > 100 µM (inactive) in assay [4]; > 100 µM (inactive) in [5]; > 100 µM (inactive) in assay [6]. The GI50 in assay [7], in assay [8], in assay [9], in assay [10], in [11] and in assay [12] was > 100 µM (inactive) each time. For the same compound, the GI50 in assay [13], in [14], in [15], in assay [16], in assay [17] and in assay [18] was > 100 µM (inactive) throughout.

For `O=C(COc1ccc(OCC(=O)N2C(=O)CN(c3ccc(Cl)cc3)C2=S)cc1)N1C(=O)CN(c2ccc(Cl)cc2)C1=S`, the GI50 is 24 µM (inactive) in [1]; 29.9 µM in assay [2]; 29 µM (inactive) in assay [3]; 26.5 µM (inactive) in [4]; 19.6 µM (inactive) in [5]; 40.6 µM (inactive) in assay [6]. Further, the GI50 in assay [7] is 15.7 µM (inactive); in assay [8], 23.3 µM (inactive); in assay [9] it was 29.3 µM (inactive); in assay [10] it was 6.62 µM (inactive); in assay [13], 25.9 µM (inactive); in assay [14], 22.9 µM (inactive). Moreover, the GI50 in assay [15] is 36.1 µM (inactive); in [19], 31.2 µM (inactive); in assay [17] it was 26.6 µM (inactive); in assay [18], 31.4 µM (inactive).

With `CCOC(=O)C12C(C(=O)OC)=C(C)N(NC(=O)Nc3ccccc3)C1(N)N(NC(=O)Nc1ccccc1)C(C)=C2C(=O)OC` (configuration not stated), the GI50 in [1] is 17.7 µM (inactive); in [2] it was 35.2 µM; in assay [3], 26.1 µM (inactive); in assay [4] it was 20.9 µM (inactive); in [5], 34.9 µM (inactive); in assay [6], 33.7 µM (inactive). The GI50 in assay [7] is 25.3 µM (inactive); in assay [8], 40.3 µM (inactive); in assay [9], 29.9 µM (inactive); in assay [10] it was 43.5 µM (inactive); in assay [11] it was 23.7 µM (inactive); in assay [12] it was 22 µM (inactive). Further, the GI50 in assay [13] is 39.8 µM (inactive); in assay [14], 39.5 µM (inactive); in assay [15], 38.5 µM (inactive); in assay [16], 20.5 µM (inactive); in [17] it was 41.2 µM (inactive); in [18], 24.5 µM (inactive).

Regarding `Nc1nc(NNc2ccccc2F)cc(=O)[nH]1`, the GI50 is 82.2 µM (inactive) in [1]; more than 100 µM in assay [2]; > 100 µM (inactive) in assay [3]; > 100 µM (inactive) in [7]; > 100 µM (inactive) in assay [8]; 58.6 µM (inactive) in assay [9]. Also, the GI50 in assay [10] is > 100 µM (inactive); in assay [11] it was 78.5 µM (inactive); in assay [12], > 100 µM (inactive); in assay [13], > 100 µM (inactive); in [14], 58.1 µM (inactive); in assay [15] it was > 100 µM (inactive). The GI50 in [19], in [16], in assay [17] and in assay [18] was > 100 µM (inactive) each time.

On to `CC[C@H](C)[C@H]1NC(=O)[C@@H](N)[C@@H](C)OC(=O)[C@H](Cc2ccc(OC)cc2)N(C)C(=O)[C@@H]2CCCN2C(=O)[C@H](CC(C)C)NC(=O)[C@@H](C)C(=O)[C@H](C(C)C)OC(=O)C[C@@H]1O` (H-T[X36]LP[NMeY](Me); ester 1-C), for which the GI50 was 29.5 µM (inactive) in assay [1]; 36.7 µM in assay [2]; 29.4 µM (inactive) in assay [3]; 10.5 µM (inactive) in [4]; 13.2 µM (inactive) in assay [6]; 30.3 µM (inactive) in assay [8]. Moreover, the GI50 in assay [9] was 18.4 µM (inactive); in assay [10], 44.2 µM (inactive); in [11], 22.3 µM (inactive); in assay [12], 16.3 µM (inactive); in assay [13], 54.5 µM (inactive); in assay [14] it was 93.8 µM (inactive). The GI50 is 31.5 µM (inactive) in assay [15]; 15.5 µM (inactive) in assay [19]; 14.7 µM (inactive) in [16]; 10.1 µM (inactive) in [17]; 3.67 µM (inactive) in assay [18].

As for `CCc1c(O)nc(Nc2nc3ccccc3[nH]2)[nH]c1=O`, the GI50 in assay [1] was > 100 µM (inactive); in assay [2], more than 100 µM; in assay [3] it was > 100 µM (inactive); in assay [4], > 100 µM (inactive); in assay [6] it was > 100 µM (inactive); in [7] it was > 100 µM (inactive). Also, the GI50 in assay [8] was > 100 µM (inactive); in [9], > 100 µM (inactive); in assay [11], > 100 µM (inactive); in assay [12] it was 92.9 µM (inactive); in assay [13], > 100 µM (inactive); in [14] it was > 100 µM (inactive). Besides, the GI50 in [15], in [19], in assay [16], in assay [17] and in assay [18] was > 100 µM (inactive) each time.

With `CC1CCC(C(=O)O)(C(Br)C(=O)O)CC1` (configuration not stated), the GI50 was > 100 µM (inactive) in [1]; more than 100 µM in assay [2]; > 100 µM (inactive) in assay [3]; > 100 µM (inactive) in assay [5]; > 100 µM (inactive) in assay [6]; > 100 µM (inactive) in assay [7]. Moreover, the GI50 in assay [8], in assay [9], in assay [10], in assay [11], in assay [12] and in [13] was > 100 µM (inactive) throughout. Also, the GI50 in assay [14], in [15], in assay [19], in [16], in assay [17] and in assay [18] was > 100 µM (inactive) in each case.

Take `CC(C)N(C(=O)C12C3C4C5(C#N)C3C1(I)C5C42I)C(C)C` (configuration not stated): the GI50 in [1] is > 84.1 µM (inactive); in [2] it was more than 41.9 µM; in [3], > 100 µM (inactive); in assay [4], > 100 µM (inactive); in assay [5], > 100 µM (inactive); in assay [6], > 70.3 µM (inactive). The GI50 in assay [7] is 17.8 µM (inactive); in [8] it was > 78 µM (inactive); in [9] it was > 52.8 µM (inactive); in [10], > 100 µM (inactive); in [11], > 44.3 µM (inactive); in assay [12], 37.8 µM (inactive). Further, the GI50 in assay [13] was > 45.5 µM (inactive); in assay [14] it was > 46.1 µM (inactive); in [15], > 100 µM (inactive); in assay [16] it was > 100 µM (inactive); in assay [17], > 100 µM (inactive); in assay [18] it was > 73.8 µM (inactive).

Turning to `N#CN=C(NCc1ccccc1)NCc1ccccc1`, the GI50 in assay [1] was > 48.2 µM (inactive); in [2] it was more than 40.3 µM; in [3], > 100 µM (inactive); in assay [4] it was > 100 µM (inactive); in assay [5] it was > 100 µM (inactive); in [6] it was > 100 µM (inactive). Moreover, the GI50 in assay [7] was 18.4 µM (inactive); in assay [8], > 64.7 µM (inactive); in [9], > 75.3 µM (inactive); in assay [10] it was > 100 µM (inactive); in assay [11], > 100 µM (inactive); in assay [12], 27.9 µM (inactive). For the same compound, the GI50 in [13] is > 100 µM (inactive); in [14], > 60.7 µM (inactive); in assay [15], > 100 µM (inactive); in [16] it was > 100 µM (inactive); in assay [17], > 100 µM (inactive); in assay [18], > 100 µM (inactive).
